Measurements reported in patent publication US12209075B2, “Pyridine-sulfonamide derivatives as sodium channel inhibitors” (GENENTECH, INC., priority 2018, dated 2025).
Structures can show the parent of a compound that is named as a salt.

Target: hNav1.7 (Homo sapiens (Human), UniProt Q15858)
Assay: Tritiated compound binding to membranes from cells expressing hNav1.7 and the β1 subunit (Nav1.7 LBA EVO)
Details: competitive binding vs [3H]compound, membranes with hNav1.7 and β1 subunit
Description: Example 64a. Tritiated Compound Binding to Membranes Isolated from Cells that Heterologously Express hNav1.7 and the β1 Subunit
Preparation of membranes containing recombinantly expressed sodium channels: Frozen recombinant cell pellets are thawed on ice and diluted to 4 times the cell pellet weight with ice cold 50 mM Tris HCl, pH 7.4 buffer. The cell suspensions are homogenized on ice using a motorized glass dounce homogeniser. Homogenates are further diluted 8.4 times with ice cold 50 mM Tris HCl, pH 7.4 buffer and then centrifuged at 200×g at 4° C. for 15 minutes. The supernatants are collected and centrifuged at 10000×g at 4° C. for 50 min. The pellets are then re-suspended in 100 mM NaCl, 20 mM Tris HCl, pH 7.4 buffer containing 1% v/v protease inhibitors (Calbiochem) and re-homogenized on ice. The homogenized membranes are then processed through a syringe equipped with a 26 gauge needle. Protein concentrations arer determined by Bradford Assay and the membranes are stored at −80° C.
Radioligand Binding Studies: Saturation experiments. A competitive NaV1.7 inhibitor having a methyl group is tritiated. Three tritiums are incorporated in place of methyl hydrogens to generate [^3H]compound. Binding of this radioligand is performed in 5 mL borosilicate glass test tubes at room temperature. Binding is initiated by adding membranes to increasing concentrations of [^3H]compound in 100 mM NaCl, 20 mM Tris HCl, pH 7.4 buffer containing 0.01% w/v bovine serum albumin (BSA) for 18 h. Non-specific binding is determined in the presence of 1 μM unlabeled compound. After 18 h, the reactants are filtered through GF/C glass fiber filters presoaked in 0.5% w/v polyethylene imine. Filters are washed with 15 mL ice cold 100 mM NaCl, 20 mM Tris HCl, pH7.4 buffer containing 0.25% BSA to separate bound from free ligand. [^3H]compound bound to filters is quantified by liquid scintillation counting.
Competitive binding experiments: Binding reactions are performed in 96-well polypropylene plates at room temperature for 18 h. In 360 μL, membranes are incubated with 100 pM [^3H]compound and increasing concentrations of Test Compound. Non-specific binding is defined in the presence of 1 μM unlabeled compound. Reactions are transferred and filtered through 96-well glass fiber/C filter plates presoaked with 0.5% polyethylene imine. The filtered reactions are washed 5 times with 200 μL ice cold buffer containing 0.25% BSA. Bound radioactivity is determined by liquid scintillation counting.
Data Analysis: For saturation experiments, non-specific binding is subtracted from total binding to provide specific binding and these values are recalculated in terms of pmol ligand bound per mg protein. Saturation curves are constructed and dissociation constants are calculated using the single site ligand binding model: Beq=(Bmax*X)/(X+Kd), where Beq is the amount of ligand bound at equilibrium, Bmax is the maximum receptor density, Kd is the dissociation constant for the ligand, and X is the free ligand concentration. For competition studies percent inhibition is determined and IC50 values are calculated using a 4 parameter logistic model (% inhibition=(A+((B−A)/(1+((x/C)^D)))) using XLfit, where A and B are the maximal and minimum inhibition respectively, C is the IC50 concentration and D is the (Hill) slope.
Example 64b. Tritiated Compound Binding to Membranes Isolated from Cells that Heterologous Express hNav1.7 and the β1 Subunit
Preparation of membranes containing recombinantly expressed sodium channels: Following the procedure described in 31a, and making modifications as required to: centrifuge supernatants at 100000×g instead of 10000×g; re-suspend pellets in a buffer containing 0.01% BSA in addition to 100 mM NaCl, 20 mM Tris HCl, pH 7.4 buffer, and 1% v/v […]; and storing membranes at −80° C. in single use aliquots instead of pooled. […]

hNav1.7, sequence (Q15858 whole entry, looked up): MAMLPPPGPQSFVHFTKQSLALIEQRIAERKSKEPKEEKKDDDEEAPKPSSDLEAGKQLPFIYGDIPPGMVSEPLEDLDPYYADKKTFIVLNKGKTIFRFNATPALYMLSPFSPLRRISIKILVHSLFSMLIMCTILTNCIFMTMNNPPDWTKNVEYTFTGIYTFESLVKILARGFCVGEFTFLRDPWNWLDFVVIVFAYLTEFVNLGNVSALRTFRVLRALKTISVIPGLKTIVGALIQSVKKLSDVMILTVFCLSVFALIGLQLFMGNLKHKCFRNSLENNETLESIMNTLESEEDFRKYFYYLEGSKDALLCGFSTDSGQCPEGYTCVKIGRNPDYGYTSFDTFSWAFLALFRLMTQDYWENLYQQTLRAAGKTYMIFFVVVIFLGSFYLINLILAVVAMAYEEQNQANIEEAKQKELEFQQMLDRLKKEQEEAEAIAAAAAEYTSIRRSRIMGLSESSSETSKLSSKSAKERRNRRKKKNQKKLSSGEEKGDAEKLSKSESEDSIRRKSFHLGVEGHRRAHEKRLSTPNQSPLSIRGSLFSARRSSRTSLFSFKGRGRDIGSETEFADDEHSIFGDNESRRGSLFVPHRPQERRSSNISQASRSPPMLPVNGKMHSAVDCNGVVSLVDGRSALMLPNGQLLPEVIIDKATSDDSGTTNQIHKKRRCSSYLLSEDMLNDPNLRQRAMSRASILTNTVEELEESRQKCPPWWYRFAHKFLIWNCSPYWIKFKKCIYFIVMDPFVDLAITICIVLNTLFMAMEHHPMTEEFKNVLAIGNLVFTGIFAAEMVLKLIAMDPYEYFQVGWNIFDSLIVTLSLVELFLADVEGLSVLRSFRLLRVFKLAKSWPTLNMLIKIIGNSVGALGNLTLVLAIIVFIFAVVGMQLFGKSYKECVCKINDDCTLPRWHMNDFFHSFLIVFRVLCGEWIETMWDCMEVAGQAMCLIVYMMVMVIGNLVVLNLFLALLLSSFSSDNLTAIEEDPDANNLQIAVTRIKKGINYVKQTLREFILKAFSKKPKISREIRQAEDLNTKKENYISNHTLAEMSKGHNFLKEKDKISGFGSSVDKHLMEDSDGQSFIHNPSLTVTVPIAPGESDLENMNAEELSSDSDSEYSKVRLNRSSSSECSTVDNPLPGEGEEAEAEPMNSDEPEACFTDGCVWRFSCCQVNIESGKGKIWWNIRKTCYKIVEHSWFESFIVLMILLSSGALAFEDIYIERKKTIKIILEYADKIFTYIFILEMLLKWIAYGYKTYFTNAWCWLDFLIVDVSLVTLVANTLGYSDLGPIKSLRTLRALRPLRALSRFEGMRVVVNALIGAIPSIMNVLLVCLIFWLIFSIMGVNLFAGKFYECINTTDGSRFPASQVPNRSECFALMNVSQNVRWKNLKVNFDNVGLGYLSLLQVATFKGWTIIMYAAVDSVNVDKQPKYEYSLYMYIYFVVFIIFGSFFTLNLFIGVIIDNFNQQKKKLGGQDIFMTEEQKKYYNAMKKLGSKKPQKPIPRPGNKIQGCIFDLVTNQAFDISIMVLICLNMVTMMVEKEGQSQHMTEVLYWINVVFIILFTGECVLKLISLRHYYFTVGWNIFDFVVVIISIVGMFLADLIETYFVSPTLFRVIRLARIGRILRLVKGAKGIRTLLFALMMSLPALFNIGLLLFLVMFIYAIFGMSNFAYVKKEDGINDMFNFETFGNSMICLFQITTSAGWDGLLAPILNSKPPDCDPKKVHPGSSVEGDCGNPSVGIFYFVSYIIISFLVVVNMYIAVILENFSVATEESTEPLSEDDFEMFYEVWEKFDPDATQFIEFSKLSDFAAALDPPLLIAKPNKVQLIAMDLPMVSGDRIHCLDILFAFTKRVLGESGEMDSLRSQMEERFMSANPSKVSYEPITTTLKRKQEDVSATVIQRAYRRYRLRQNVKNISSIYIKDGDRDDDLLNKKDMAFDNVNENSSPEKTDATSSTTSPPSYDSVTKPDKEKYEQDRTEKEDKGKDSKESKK
hNav1.7, sequence (Q07699 whole entry partner, looked up): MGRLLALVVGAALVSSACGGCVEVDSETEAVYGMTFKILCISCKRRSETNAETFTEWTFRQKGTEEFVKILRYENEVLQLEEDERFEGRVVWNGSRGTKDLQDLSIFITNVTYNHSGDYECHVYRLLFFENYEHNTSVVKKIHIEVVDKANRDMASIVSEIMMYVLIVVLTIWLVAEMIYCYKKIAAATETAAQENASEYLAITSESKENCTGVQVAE

SMILES | IC50 [nM]
Cc1cc([C@H]2CC[C@H](Oc3ccc(S(=O)(=O)Nc4ccncn4)c(C)n3)[C@@H](N(C)C)C2)cc(C(F)(F)F)c1 [Example 58, 6-(((1S,2S,4S)-2-(dimethylamino)-4-(3-methyl-5-(trifluoromethyl)phenyl)cyclohexyl)oxy)-2-methyl-N-(pyrimidin-4-yl)pyridine-3-sulfonamide] | 2.86
Cc1nc(O[C@H]2CC[C@H](c3ccc(Cl)c(C(F)(F)F)n3)C[C@@H]2N(C)C)ccc1S(=O)(=O)Nc1ccncn1 [Example 62, 6-(((1S,2S,4S)-4-(5-chloro-6-(trifluoromethyl)pyridin-2-yl)-2-(dimethylamino)-cyclohexyl)oxy)-2-methyl-N-(pyrimidin-4-yl)pyridine-3-sulfonamide] | 1.89
O=S(=O)(Nc1ccncn1)c1cnc(O[C@H]2CC[C@H](c3cccc(C(F)(F)F)c3)C[C@@H]2N2CCCC2)c(Cl)c1 [Example 18, 5-chloro-N-(pyrimidin-4-yl)-6-(((1S,2S,4S)-2-(pyrrolidin-1-yl)-4-(3-(trifluoromethyl)phenyl)-cyclohexyl)oxy)pyridine-3-sulfonamide] | 0.95
CN(C)[C@H]1C[C@@H](c2cccc(C(F)(F)F)c2)CC[C@@H]1Oc1ncc(S(=O)(=O)Nc2ccncn2)cc1F [Example 21, 6-(((1S,2S,4S)-2-(Dimethylamino)-4-(3-(trifluoromethyl)phenyl)cyclohexyl)oxy)-5-fluoro-N-(pyrimidin-4-yl)pyridine-3-sulfonamide] | 9.17
Cc1nc(O[C@H]2CC[C@H](c3cccc(C(F)(F)F)c3)C[C@@H]2N(C)C2CCC2)ccc1S(=O)(=O)Nc1ccncn1 [Example 35, 6-(((1S,2S,4S)-2-(Cyclobutyl(methyl)amino)-4-(3-(trifluoromethyl)phenyl)cyclohexyl)oxy)-2-methyl-N-(pyrimidin-4-yl)pyridine-3-sulfonamide] | 1.12
CN(C)[C@H]1C[C@@H](c2cccc(C(F)(F)F)c2)CC[C@@H]1Oc1ccc(S(=O)(=O)Nc2ccncn2)c(Cl)n1 [Example 22, 2-Chloro-6-(((1S,2S,4S)-2-(dimethylamino)-4-(3-(trifluoromethyl)phenyl)cyclohexyl)oxy)-N-(pyrimidin-4-yl)pyridine-3-sulfonamide] | 40
CN(C)[C@H]1C[C@@H](c2cccc(C(F)(F)F)c2)CC[C@@H]1Oc1ccc(S(=O)(=O)Nc2ccncn2)cn1 [Example 1, 6-(((1S,2S,4S)-2-(Dimethylamino)-4-(3-(trifluoromethyl)phenyl)cyclohexyl)oxy)-N-(pyrimidin-4-yl)pyridine-3-sulfonamide] | 28.2
Cc1ccc(C(F)(F)F)cc1[C@H]1CC[C@H](Oc2ccc(S(=O)(=O)Nc3ccncn3)c(C)n2)[C@@H](N(C)C)C1 [Example 54, 6-(((1S,2S,4S)-2-(dimethylamino)-4-(2-methyl-5-(trifluoromethyl)phenyl)cyclohexyl)oxy)-2-methyl-N-(pyrimidin-4-yl)pyridine-3-sulfonamide] | 0.695
O=S(=O)(Nc1ccncn1)c1ccc(O[C@H]2CC[C@H](c3cccc(C(F)(F)F)c3)C[C@@H]2N2CCCC2)nc1 [Example 17, N-(pyrimidin-4-yl)-6-(((1S,2S,4S)-2-(pyrrolidin-1-yl)-4-(3-(trifluoromethyl)phenyl)cyclohexyl)oxy)-pyridine-3-sulfonamide formate] | 1.18
CN(C)[C@H]1C[C@@H](c2cccc(C(F)(F)F)c2)CC[C@@H]1Oc1ncc(S(=O)(=O)Nc2ccncn2)cc1Br [Example 20, 5-bromo-6-(((1S,2S,4S)-2-(dimethylamino)-4-(3-(trifluoromethyl)phenyl)cyclohexyl)oxy)-N-(pyrimidin-4-yl)pyridine-3-sulfonamide formate] | 28.2
O=S(=O)(Nc1ccncn1)c1ccc(O[C@H]2CC[C@H](c3cccc(C(F)(F)F)c3)C[C@@H]2N2CCCCC2)nc1 [Example 26, 6-(((1S,2S,4S)-2-(piperidin-1-yl)-4-(3-(trifluoromethyl)phenyl)cyclohexyl)oxy)-N-(pyrimidin-4-yl)pyridine-3-sulfonamide] | 4.88
Cc1nc(O[C@H]2CC[C@H](c3cccc(C(F)(F)F)c3C)C[C@@H]2N(C)C)ccc1S(=O)(=O)Nc1ccncn1 [Example 60, 6-(((1S,2S,4S)-2-(dimethylamino)-4-(2-methyl-3-(trifluoromethyl)phenyl)cyclohexyl)oxy)-2-methyl-N-(pyrimidin-4-yl)pyridine-3-sulfonamide] | 3.51
CN(C)[C@H]1C[C@@H](c2cccc(C(F)(F)F)c2)CC[C@@H]1Oc1ncc(S(=O)(=O)Nc2ccncn2)cc1C1CC1 [Example 7, 5-Cyclopropyl-6-(((1S,2S,4S)-2-(dimethylamino)-4-(3-(trifluoromethyl)phenyl)cyclohexyl)oxy)-N-(pyrimidin-4-yl)pyridine-3-sulfonamide formate] | 4.88
CN(C)[C@H]1C[C@@H](c2cccc(C(F)(F)F)c2)CC[C@@H]1Oc1ncc(S(=O)(=O)Nc2ccncn2)cc1C#N [Example 6, 5-Cyano-6-(((1S,2S,4S)-2-(dimethylamino)-4-(3-(trifluoromethyl)phenyl)cyclohexyl)oxy)-N-(pyrimidin-4-yl)pyridine-3-sulfonamide formate] | 44.8
O=S(=O)(Nc1ccncn1)c1cnc(O[C@H]2CC[C@H](c3cccc(C(F)(F)F)c3)C[C@@H]2N2CCCCC2)c(Cl)c1 [Example 19, 5-chloro-6-(((1S,2S,4S)-2-(piperidin-1-yl)-4-(3-(trifluoromethyl)phenyl)cyclohexyl)oxy)-N-(pyrimidin-4-yl)pyridine-3-sulfonamide] | 0.493
CCc1cc(S(=O)(=O)Nc2ccncn2)cnc1O[C@H]1CC[C@H](c2cccc(C(F)(F)F)c2)C[C@@H]1N(C)C [Example 24, 6-(((1S,2S,4S)-2-(Dimethylamino)-4-(3-(trifluoromethyl)phenyl)cyclohexyl)oxy)-5-ethyl-N-(pyrimidin-4-yl)pyridine-3-sulfonamide formate] | 66.4
CN(C)[C@H]1C[C@@H](c2cccc(C(F)(F)F)c2)CC[C@@H]1Oc1ccc(S(=O)(=O)Nc2ccncn2)c(C2CC2)n1 [Example 34, 2-Cyclopropyl-6-(((1S,2S,4S)-2-(dimethylamino)-4-(3-(trifluoromethyl)phenyl)-cyclohexyl)oxy)-N-(pyrimidin-4-yl)pyridine-3-sulfonamide] | 1.15
CCN(C)[C@H]1C[C@@H](c2cccc(C(F)(F)F)c2)CC[C@@H]1Oc1ccc(S(=O)(=O)Nc2ccncn2)c(C)n1 [Example 48, 6-(((1S,2S,4S)-2-(Ethyl(methyl)amino)-4-(3-(trifluoromethyl)phenyl)cyclohexyl)oxy)-2-methyl-N-(pyrimidin-4-yl)pyridine-3-sulfonamide] | 0.75
Cc1nc(O[C@H]2CC[C@H](c3ccc(F)c(C(F)(F)F)c3)C[C@@H]2N(C)C)ccc1S(=O)(=O)Nc1ccncn1 [Example 45, 6-(((1S,2S,4S)-2-(Dimethylamino)-4-(4-fluoro-3-(trifluoromethyl)phenyl)cyclohexyl)oxy)-2-methyl-N-(pyrimidin-4-yl)pyridine-3-sulfonamide formate] | 0.913
COc1cc(S(=O)(=O)Nc2ccncn2)cnc1O[C@H]1CC[C@H](c2cccc(C(F)(F)F)c2)C[C@@H]1N(C)C [Example 61, 6-(((1S,2S,4S)-2-(Dimethylamino)-4-(3-(trifluoromethyl)phenyl)cyclohexyl)oxy)-5-methoxy-N-(pyrimidin-4-yl)pyridine-3-sulfonamide formate] | 1.9
Cc1cc(S(=O)(=O)Nc2ccncn2)cnc1O[C@H]1CC[C@H](c2cccc(C(F)(F)F)c2)C[C@@H]1N(C)C [Example 15, 6-(((1S,2S,4S)-2-(Dimethylamino)-4-(3-(trifluoromethyl)phenyl)cyclohexyl)oxy)-5-methyl-N-(pyrimidin-4-yl)pyridine-3-sulfonamide] | 40.8
